Results from patent US9242996B2 (Novartis AG, priority 2013, dated 2016).
pIC50: −log10 of the molar value.

What was measured:
Type in all cases: biochemical
ERK2 = ERK2 (Homo sapiens (Human), UniProt P28482); assay: ERK2 Alphascreen
activated ERK2 [1] = biological target: T1, activated ERK2 (Homo sapiens (Human), UniProt P28482); assay: Activated ERK2 (20 pM) Kinase Assay (AlphaScreen, ERKtide phosphorylation); details: 0.02 nM ERK2, 400 nM ERKtide peptide, 35 μM ATP, 30 min preincubation
In short: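 AlphaScreen read-out (anti-phospho-EGFR Thr669 antibody, protein A acceptor/streptavidin donor beads) of ERKtide (400 nM) phosphorylation by 20 pM activated ERK2 at 35 μM ATP.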

activated ERK2 [2] = biological target: T1, activated ERK2; assay: Activated ERK2 kinase assay, ERK2 New conditions (AlphaScreen, ERKtide phosphorylation); details: 0.25 nM ERK2, 200 nM ERKtide peptide, 35 μM ATP, 30 min preincubation
In short: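 Read-out is AlphaScreen with anti-phospho-EGFR (Thr669) antibody after EDTA quench and overnight dark incubation. Reaction: 0.25 nM ERK2, 30 min compound preincubation, then 200 nM ERKtide plus 35 µM ATP for 2–3 h at ambient temperature, pH 7.5. IC50 by four-parameter fit.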

T1 sequence (P28482 whole entry): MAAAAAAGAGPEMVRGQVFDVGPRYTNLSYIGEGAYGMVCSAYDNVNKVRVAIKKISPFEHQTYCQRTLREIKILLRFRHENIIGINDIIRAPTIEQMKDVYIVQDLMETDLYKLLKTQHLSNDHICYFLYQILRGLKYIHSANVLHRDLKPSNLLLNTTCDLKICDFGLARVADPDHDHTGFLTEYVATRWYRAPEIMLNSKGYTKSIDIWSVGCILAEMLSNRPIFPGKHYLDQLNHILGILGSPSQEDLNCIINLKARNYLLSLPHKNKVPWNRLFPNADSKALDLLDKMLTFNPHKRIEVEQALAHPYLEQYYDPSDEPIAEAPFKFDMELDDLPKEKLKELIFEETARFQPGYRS
Chain of ERK2 (P28482 whole entry, species assumed): as the sequence (P28482 whole entry) above

pIC50 (ERK2)	pIC50 (activated ERK2 [1])	pIC50 (activated ERK2 [2])	Compound
8.01	7.69		Nc1ncc(C2CCOCC2)cc1-c1ccc(C(=O)NCc2cccc(C(F)(F)F)c2)cc1 [Example 89, 4-(2-amino-5-(tetrahydro-2H-pyran-4-yl)pyridin-3-yl)-N-(3-(trifluoromethyl)benzyl)benzamide]
6.05	6.30		Nc1ncc(C2CCOCC2)cc1-c1ccc(C(=O)NCc2cccnc2)cc1 [Example 93, 4-(2-amino-5-(tetrahydro-2H-pyran-4-yl)pyridin-3-yl)-N-(pyridin-3-ylmethyl)benzamide]
8.32	8.43		Nc1ncc(C2CCOCC2)cc1-c1ccc(C(=O)NCc2cccc(Cl)c2)cc1 [Example 86, 4-(2-amino-5-(tetrahydro-2H-pyran-4-yl)pyridin-3-yl)-N-(3-chlorobenzyl)benzamide]
8.44	8.36		Nc1ncc(C2CCOCC2)cc1-c1ccc(C(=O)N[C@H](CO)c2ccccc2)cc1 [Example 64, (S)-4-(2-amino-5-(tetrahydro-2H-pyran-4-yl)pyridin-3-yl)-N-(2-hydroxy-1-phenylethyl)benzamide]
8.67	9.05		Cc1cnccc1-c1cnc(N)c(-c2ccc(C(=O)N[C@H](CO)c3ccccc3)cc2)c1 [Example 82, (S)-4-(6-amino-3′-methyl-3,4′-bipyridin-5-yl)-N-(2-hydroxy-1-phenylethyl)benzamide]
6.24	6.48		Cc1cc(C(=O)N[C@H](CO)c2ccccc2)ccc1-c1cc(C2CCOCC2)cnc1N [Example 70, (S)-4-(2-amino-5-(tetrahydro-2H-pyran-4-yl)pyridin-3-yl)-N-(2-hydroxy-1-phenylethyl)-3-methylbenzamide]
6.58	6.68		Nc1ncc(C2CCOCC2)cc1-c1ccc(C(=O)NCc2ccccc2Cl)cc1 [Example 87, 4-(2-amino-5-(tetrahydro-2H-pyran-4-yl)pyridin-3-yl)-N-(2-chlorobenzyl)benzamide]
9.27	9.87		Cc1cc(-c2nc(C3CCOCC3)cnc2N)ccc1C(=O)N[C@H](CO)c1ccccc1 [Example 95, (S)-4-(3-amino-6-(tetrahydro-2H-pyran-4-yl)pyrazin-2-yl)-N-(2-hydroxy-1-phenylethyl)-2-methylbenzamide]
6.57	6.87		CC(=O)Nc1cccc(CNC(=O)c2ccc(-c3cc(C4CCOCC4)cnc3N)cc2)c1 [Example 92, N-(3-acetamidobenzyl)-4-(2-amino-5-(tetrahydro-2H-pyran-4-yl)pyridin-3-yl)benzamide]
9.12			Nc1ncc(C2CCOCC2)nc1-c1ccc(C(=O)NCc2cccc(Cl)c2)c(F)c1 [Example 173, 4-(3-amino-6-(tetrahydro-2H-pyran-4-yl)pyrazin-2-yl)-N-(3-chlorobenzyl)-2-fluorobenzamide]
7.09	7.15		Nc1ncc(C2CCOCC2)cc1-c1ccc(C(=O)NCc2ccc(Cl)cc2)cc1 [Example 88, 4-(2-amino-5-(tetrahydro-2H-pyran-4-yl)pyridin-3-yl)-N-(4-chlorobenzyl)benzamide]
8.02	8.69		C[C@@H]1COCCN1c1cnc(N)c(-c2ccc(C(=O)N[C@H](CO)c3ccccc3)c(F)c2)c1 [Example 84, 4-(2-amino-5-((R)-3-methylmorpholino)pyridin-3-yl)-2-fluoro-N-((S)-2-hydroxy-1-phenylethyl)benzamide]
7.96	8.13		Nc1ncc(N2CCOCC2)cc1-c1ccc(C(=O)N[C@H](CO)c2ccccc2)cc1 [Example 122, (S)-4-(2-amino-5-morpholinopyridin-3-yl)-N-(2-hydroxy-1-phenylethyl)benzamide]
	10.03	9.72	Cn1cc(-c2cnc(N)c(-c3ccc(C(=O)N[C@H](CO)c4cccc(Cl)c4)c(F)c3)c2)cn1 [Example 263, (S)-4-(2-amino-5-(1-methyl-1H-pyrazol-4-yl)pyridin-3-yl)-N-(1-(3-chlorophenyl)-2-hydroxyethyl)-2-fluorobenzamide]
	8.89	8.61	C[C@@H](NC(=O)c1ccc(-c2cc([C@H]3CCC(=O)N(C)C3)cnc2N)cc1F)c1cccc(Cl)c1 [Example 39, 4-(2-amino-5-((R)-1-methyl-6-oxopiperidin-3-yl)pyridin-3-yl)-N—((R)-1-(3-chlorophenyl)ethyl)-2-fluorobenzamide]
	8.03	7.72	CO[C@H]1CC[C@H](c2cnc(N)c(-c3ccc(C(=O)NCc4ccccc4)c(F)c3)n2)CC1 [Example 116, 4-(3-amino-6-((1r,4r)-4-methoxycyclohexyl)pyrazin-2-yl)-N-benzyl-2-fluorobenzamide]
	8.90	8.61	C[C@@H](NC(=O)c1ccc(-c2cc([C@@H]3CCC(=O)N(C)C3)cnc2N)cc1F)c1cccc(Cl)c1 [Example 40, 4-(2-amino-5-((S)-1-methyl-6-oxopiperidin-3-yl)pyridin-3-yl)-N—((R)-1-(3-chlorophenyl)ethyl)-2-fluorobenzamide]
	8.31	8.09	Nc1ncc([C@H]2CC[C@@H](N)CC2)nc1-c1ccc(C(=O)N[C@H](CO)c2cccc(Cl)c2)c(F)c1 [Example 192, 4-(3-amino-6-((1s,4R)-4-aminocyclohexyl)pyrazin-2-yl)-N—((S)-1-(3-chlorophenyl)-2-hydroxyethyl)-2-fluorobenzamide]
	10.12	9.66	Nc1ncc(C2=CCOCC2)nc1-c1ccc(C(=O)N[C@H](CO)c2cccc(Cl)c2)c(F)c1 [Example 428, (S)-4-(3-amino-6-(3,6-dihydro-2H-pyran-4-yl)pyrazin-2-yl)-N-(1-(3-chlorophenyl)-2-hydroxyethyl)-2-fluorobenzamide]
	7.65	7.16	C[C@@H](NC(=O)c1ccc(-c2cc([C@@H]3CCN(C)C(=O)C3)cnc2N)cc1F)c1ccccc1 [Example 30, 4-(2-amino-5-((R)-1-methyl-2-oxopiperidin-4-yl)pyridin-3-yl)-2-fluoro-N—((R)-1-phenylethyl)benzamide]
	8.73	8.39	CN1CC[C@@H](c2cnc(N)c(-c3ccc(C(=O)N[C@H](CO)c4cccc(Cl)c4)c(F)c3)c2)CC1=O [Example 27, 4-(2-amino-5-((R)-1-methyl-2-oxopiperidin-4-yl)pyridin-3-yl)-N—((S)-1-(3-chlorophenyl)-2-hydroxyethyl)-2-fluorobenzamide]
	9.23	8.87	C[C@@H](NC(=O)c1ccc(-c2nc(C3=CCCCC3)cnc2N)cc1F)c1cc(F)cc(S(C)(=O)=O)c1 [Example 426, (R)-4-(3-amino-6-(cyclohex-1-en-1-yl)pyrazin-2-yl)-2-fluoro-N-(1-(3-fluoro-5-(methylsulfonyl)phenyl)ethyl) benzamide]
	9.44	9.04	Nc1ncc(C2=CCCCC2)nc1-c1ccc(C(=O)N[C@H](CO)c2cccc(Cl)c2)c(F)c1 [Example 425, (S)-4-(3-amino-6-(cyclohex-1-en-1-yl)pyrazin-2-yl)-N-(1-(3-chlorophenyl)-2-hydroxyethyl)-2-fluorobenzamide]
	10.39	9.84	Cc1nn(C)cc1-c1cnc(N)c(-c2ccc(C(=O)N[C@H](CO)c3cccc(Cl)c3)c(F)c2)c1 [Example 152, (S)-4-(2-amino-5-(1,3-dimethyl-1H-pyrazol-4-yl)pyridin-3-yl)-N-(1-(3-chlorophenyl)-2-hydroxyethyl)-2-fluorobenzamide]
	9.27	8.87	C[C@@H](NC(=O)c1ccc(-c2cc(C3CCNC(=O)C3)cnc2N)cc1F)c1cccc(Cl)c1 (mixture of isomers) [Example 120, 4-(2-amino-5-(2-oxopiperidin-4-yl)pyridin-3-yl)-N-((R)-1-(3-chlorophenyl)ethyl)-2-fluorobenzamide]
	10.22	9.61	Cc1nn(C)cc1-c1cnc(N)c(-c2ccc(C(=O)N[C@H](CO)c3cccc(Cl)c3)c(F)c2)n1 [Example 127, (S)-4-(3-amino-6-(1,3-dimethyl-1H-pyrazol-4-yl)pyrazin-2-yl)-N-(1-(3-chlorophenyl)-2-hydroxyethyl)-2-fluorobenzamide]
6.72			Nc1ncc(C2CCNCC2)cc1-c1ccc(C(=O)N[C@H](CO)c2ccccc2)c(F)c1 [Example 2, (S)-4-(2-amino-5-(piperidin-4-yl)pyridin-3-yl)-2-fluoro-N-(2-hydroxy-1-phenylethyl)benzamide]
	8.92	8.59	CN1CC[C@H](c2cnc(N)c(-c3ccc(C(=O)N[C@H](CO)c4cccc(Cl)c4)c(F)c3)c2)CC1=O [Example 28, 4-(2-amino-5-((S)-1-methyl-2-oxopiperidin-4-yl)pyridin-3-yl)-N—((S)-1-(3-chlorophenyl)-2-hydroxyethyl)-2-fluorobenzamide]
	7.49	7.13	C[C@@H](NC(=O)c1ccc(-c2cc([C@H]3CCN(C)C(=O)C3)cnc2N)cc1F)c1ccccc1 [Example 31, 4-(2-amino-5-((S)-1-methyl-2-oxopiperidin-4-yl)pyridin-3-yl)-2-fluoro-N—((R)-1-phenylethyl)benzamide]
	9.66	9.47	Nc1ncc(C2CCNC(=O)C2)cc1-c1ccc(C(=O)N[C@H](CO)c2cccc(Cl)c2)c(F)c1 (mixture of isomers) [Example 121, 4-(2-amino-5-(2-oxopiperidin-4-yl)pyridin-3-yl)-N-((S)-1-(3-chlorophenyl)-2-hydroxyethyl)-2-fluorobenzamide]
